How the values were obtained:
[1] = molecular target: CYP450 2C9 (Homo sapiens, UniProt P11712); assay: CYP450 Panel; format: in vitro ADME; settings: 10 μM; substrate Diclofenac; in % (unit assumed)
[2] = molecular target: CYP450 2C19 (Homo sapiens, UniProt P33261); assay: CYP450 Panel; format: in vitro ADME; settings: 10 μM; substrate mephenytoin; in % (unit assumed)
[3] = system: Capan-2 (KRAS G12V) pancreatic xenograft; format: in vivo, Athymic Nude Mice; settings: 21 days
[4] = molecular target: T1, CYP450 2B6 (Homo sapiens, UniProt P20813); assay: CYP450 Panel; format: in vitro ADME; settings: 10 μM; substrate bupropion
T1 sequence (P20813 1-491): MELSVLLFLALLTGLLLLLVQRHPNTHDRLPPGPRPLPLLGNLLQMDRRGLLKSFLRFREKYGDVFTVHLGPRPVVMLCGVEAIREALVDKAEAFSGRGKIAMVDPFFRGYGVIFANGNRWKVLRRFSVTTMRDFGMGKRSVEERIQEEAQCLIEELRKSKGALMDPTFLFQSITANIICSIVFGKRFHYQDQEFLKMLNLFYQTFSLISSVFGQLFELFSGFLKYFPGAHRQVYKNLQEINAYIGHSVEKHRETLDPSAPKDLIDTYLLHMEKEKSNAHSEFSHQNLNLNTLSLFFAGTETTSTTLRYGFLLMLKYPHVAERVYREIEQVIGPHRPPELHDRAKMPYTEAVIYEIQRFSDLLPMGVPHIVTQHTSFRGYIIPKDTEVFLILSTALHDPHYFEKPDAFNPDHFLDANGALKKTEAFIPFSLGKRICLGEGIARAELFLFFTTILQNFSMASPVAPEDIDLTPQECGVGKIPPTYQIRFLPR

[5] = system: pMEK in A549; assay: CRAF A549 pMEK:tMEK; format: cell-based, Human
Procedure: (§1) Materials and Methods: A549 or A375 cells were seeded in 6-well plates at an appropriate seeding density on day 0. On day 2 or 3, after checking the health and confluency of cells, the media was aspirated and replaced with 1 mL media containing a predetermined concentration of compound and incubated for 2 hours. After 2 hours, the media was aspirated, and the cells washed 2 times with cold PBS. Cells were lysed on ice, with 50 μL 1× CST lysis buffer+1 mM PMSF for 5 minutes. After 5 minutes, cells were removed using a scraper and transferred to cold 1.5 mL tubes, and centrifuged for 10 min, 4° C., 14,000×g. Supernatant was gently removed and snap frozen in liquid nitrogen. Protein concentration of the lysate was determined using Bradford Reagent (analyzed using SpectraMax M2E) and diluted to 1 mg/mL or pERK or 1.5 mg/mL for pMEK analysis. Cell lysates were then analyzed for phosphor-ERK/total-ERK levels on a Jess system (ProteinSimple; Cat #JS3346) using the following antibodies: tERK1/2 (CST 4696; 1:50) and pERK1/2 (CST 4377; 1:50). For pMEK/tMEK, the following antibodies were used: tMEK1/2 (CST 4694; 1:15) and pMEK1/2 (CST 9154; 1:400). All dilutions were in Milk-free antibody diluent.

[6] = molecular target: T2, CYP450 1A2 (Homo sapiens, UniProt P05177); assay: CYP450 Panel; settings: 10 μM; substrate phenacetin; in % (unit assumed)
T2 sequence (P05177 1-516): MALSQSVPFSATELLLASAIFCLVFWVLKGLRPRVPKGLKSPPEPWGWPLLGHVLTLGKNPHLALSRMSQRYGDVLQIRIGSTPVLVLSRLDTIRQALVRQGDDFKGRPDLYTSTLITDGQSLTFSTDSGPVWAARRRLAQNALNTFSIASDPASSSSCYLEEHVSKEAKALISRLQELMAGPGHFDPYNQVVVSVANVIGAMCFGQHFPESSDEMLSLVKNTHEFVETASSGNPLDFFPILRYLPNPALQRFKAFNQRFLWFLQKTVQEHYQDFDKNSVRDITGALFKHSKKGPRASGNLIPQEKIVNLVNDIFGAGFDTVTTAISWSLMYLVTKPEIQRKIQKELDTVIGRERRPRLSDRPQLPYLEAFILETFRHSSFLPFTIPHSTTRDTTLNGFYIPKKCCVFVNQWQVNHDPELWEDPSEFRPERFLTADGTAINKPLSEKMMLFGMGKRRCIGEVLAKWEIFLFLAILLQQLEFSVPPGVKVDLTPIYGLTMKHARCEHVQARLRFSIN

[7] = molecular target: CYP450 3A4 (Homo sapiens, UniProt P08684); assay: CYP450 Panel; format: in vitro ADME; settings: 10 μM; for CYP450 Panel 3A4 (midazolam): substrate midazolam; for CYP450 Panel 3A4 (testosterone): substrate testosterone
Sequence of CYP450 3A4 (P08684 whole entry): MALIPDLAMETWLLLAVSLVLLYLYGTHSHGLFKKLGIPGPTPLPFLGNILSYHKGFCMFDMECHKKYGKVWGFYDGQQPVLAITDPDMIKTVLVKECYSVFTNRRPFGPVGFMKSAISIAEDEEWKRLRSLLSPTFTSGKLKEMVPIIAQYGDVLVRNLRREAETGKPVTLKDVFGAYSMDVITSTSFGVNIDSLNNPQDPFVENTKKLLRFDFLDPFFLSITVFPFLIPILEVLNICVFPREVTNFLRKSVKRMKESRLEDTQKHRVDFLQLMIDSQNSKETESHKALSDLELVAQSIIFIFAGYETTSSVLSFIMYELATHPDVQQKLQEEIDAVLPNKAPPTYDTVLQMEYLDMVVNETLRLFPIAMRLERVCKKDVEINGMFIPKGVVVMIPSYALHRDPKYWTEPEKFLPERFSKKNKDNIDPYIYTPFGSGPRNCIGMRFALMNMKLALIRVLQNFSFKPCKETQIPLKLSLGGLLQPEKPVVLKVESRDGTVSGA

[8] = Plasma Stability (% remaining @2 hour); format: in vitro ADME; settings: SD Rat; 2 μM
[9] = system: A549 (KRAS^G12S) NSCLC xenograft; assay: A549 NSCLC xenograft tumor model; format: in vivo, Athymic Nude Mice
Description: A549 (KRAS^G12S) NSCLC Xenograft Tumor Model in Athymic Nude Mice. Binimetinib and encorafenib were commercially purchased.

[10] = Plasma Stability (% remaining @2 hour); format: in vitro ADME; settings: Human; 2 μM
[11] = Microsome Stability (% remaining @1 hour); format: in vitro ADME; settings: Beagle Dog; 2 μM
[12] = system: pERK in A549 (KRAS-G12S); assay: Cell-based pERK dose response / phospho-ERK screen in A549; design: species or system Human; settings: for pERK: total ERK (% relative to vehicle): A549 (KRAS G12S), 10 μM for 2 hours
Procedure: as §1, with “Cell lysates were then analyzed for phosphor-ERK/total-ERK levels on a Jess system (ProteinSimple; Cat #JS3346) using the following antibodies: tERK1/2 (CST 4696; 1:50) and pERK1/2 (CST 4377; 1:50). For pMEK/tMEK, the following antibodies were used: tMEK1/2 (CST 4694; 1:15) and pMEK1/2 (CST 9154; 1:400).” left out

[13] = Plasma Stability (% remaining @2 hour); format: in vitro ADME; settings: Beagle Dog; 2 μM

Sequence of CYP450 2C9 (P11712 whole entry): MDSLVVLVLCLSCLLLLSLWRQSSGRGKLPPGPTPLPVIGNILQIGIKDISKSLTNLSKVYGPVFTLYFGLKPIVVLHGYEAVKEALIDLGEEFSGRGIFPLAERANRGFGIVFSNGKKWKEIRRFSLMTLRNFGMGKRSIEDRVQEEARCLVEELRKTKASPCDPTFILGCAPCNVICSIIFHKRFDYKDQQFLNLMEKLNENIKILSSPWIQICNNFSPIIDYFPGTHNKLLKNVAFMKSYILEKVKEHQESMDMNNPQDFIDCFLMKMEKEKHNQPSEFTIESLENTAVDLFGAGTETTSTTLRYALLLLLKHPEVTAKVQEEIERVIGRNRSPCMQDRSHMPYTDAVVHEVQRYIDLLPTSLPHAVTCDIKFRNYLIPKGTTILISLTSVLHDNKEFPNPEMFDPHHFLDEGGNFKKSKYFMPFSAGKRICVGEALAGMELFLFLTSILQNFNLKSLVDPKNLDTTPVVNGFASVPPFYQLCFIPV
Sequence of CYP450 2C19 (P33261 whole entry): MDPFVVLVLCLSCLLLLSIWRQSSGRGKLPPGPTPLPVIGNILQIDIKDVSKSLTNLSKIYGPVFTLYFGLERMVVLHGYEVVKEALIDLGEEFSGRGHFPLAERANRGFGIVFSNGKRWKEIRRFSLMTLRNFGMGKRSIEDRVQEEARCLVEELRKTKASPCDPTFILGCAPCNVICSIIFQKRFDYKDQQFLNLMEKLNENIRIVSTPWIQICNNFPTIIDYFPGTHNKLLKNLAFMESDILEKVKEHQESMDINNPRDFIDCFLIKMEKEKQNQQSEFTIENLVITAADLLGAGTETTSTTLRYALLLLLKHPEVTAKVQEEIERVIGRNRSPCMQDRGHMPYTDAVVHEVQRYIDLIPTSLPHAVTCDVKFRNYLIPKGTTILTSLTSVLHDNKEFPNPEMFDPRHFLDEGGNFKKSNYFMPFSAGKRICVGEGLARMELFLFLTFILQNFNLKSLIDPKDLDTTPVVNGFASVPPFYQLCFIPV

Compound	CYP450 Panel 2C9 [1]	CYP450 Panel 2C19 [2]	Tumor Growth Inhibition (TGI), Capan-2 PDAC ([3]; 150 mg/kg BID po)	tumor response, Capan-2 (KRAS G12V) xenograft ([3]; compared to sotorasib or adagrasib)	CYP450 Panel 2B6 [4] [%]	CRAF A549 pMEK:tMEK [100 nM; 2 hr] [5]	CYP450 Panel 1A2 [6]	CYP450 Panel 3A4 (midazolam) [7] [%]	CYP450 Panel 3A4 (testosterone) [7] [%]	Plasma stability, % Remaining @2 hour [8] [%]	tumor growth inhibition compared to binimetinib monotherapy [9]	Plasma stability, % Remaining @2 hour [10] [%]	Microsome stability, % Remaining @1 hour [11] [%]	IC50 ([12]; Homo sapiens, A549, 2 hr incubation, read-out: pERK IC50 (A549) [12-point dose]) [nM]	Plasma stability, % Remaining @2 hour [13] [%]	pERK: total ERK (% relative to vehicle) ([12]; Table 8A) [%]	pERK: total ERK (% relative to vehicle) ([12]; Table 8B) [%]
CNS(=O)(=O)Nc1cccc(Cc2c(CN(C)C)c3ccc(OC(=O)N(C)C)cc3oc2=O)c1F [Compound A, 4-((dimethylamino)methyl)-3-(2-fluoro-3-((N-methylsulfamoyl)amino)benzyl)-2-oxo-2H-chromen-7-yl dimethylcarbamate]	6.8	8.2	up to 84%	tumor regression	14.8	0.47	4.8	16.3	26.8	106.4	greater tumor growth inhibition	95.1	76.5	19.8	96.8		
Cn1cnc2c(F)c(Nc3ccc(Br)cc3Cl)c(C(=O)NOCCO)cc21 [Reference 1, Selumetinib]	14.1	13.9			30.2		8.3	25.9	21.4	94.9		98.1	97.5		100.4	0.48	2.40
